From US8624040B2, “Substituted hydroxamic acids and uses thereof” (Millennium Pharmaceuticals, Inc., priority 2009, dated 2014)

Molecular target: T1, purified human HDAC6 (Homo sapiens, UniProt Q9UBN7)
T1 construct: purchased BPS Bioscience 5006
T1 sequence (Q9UBN7 1-1215): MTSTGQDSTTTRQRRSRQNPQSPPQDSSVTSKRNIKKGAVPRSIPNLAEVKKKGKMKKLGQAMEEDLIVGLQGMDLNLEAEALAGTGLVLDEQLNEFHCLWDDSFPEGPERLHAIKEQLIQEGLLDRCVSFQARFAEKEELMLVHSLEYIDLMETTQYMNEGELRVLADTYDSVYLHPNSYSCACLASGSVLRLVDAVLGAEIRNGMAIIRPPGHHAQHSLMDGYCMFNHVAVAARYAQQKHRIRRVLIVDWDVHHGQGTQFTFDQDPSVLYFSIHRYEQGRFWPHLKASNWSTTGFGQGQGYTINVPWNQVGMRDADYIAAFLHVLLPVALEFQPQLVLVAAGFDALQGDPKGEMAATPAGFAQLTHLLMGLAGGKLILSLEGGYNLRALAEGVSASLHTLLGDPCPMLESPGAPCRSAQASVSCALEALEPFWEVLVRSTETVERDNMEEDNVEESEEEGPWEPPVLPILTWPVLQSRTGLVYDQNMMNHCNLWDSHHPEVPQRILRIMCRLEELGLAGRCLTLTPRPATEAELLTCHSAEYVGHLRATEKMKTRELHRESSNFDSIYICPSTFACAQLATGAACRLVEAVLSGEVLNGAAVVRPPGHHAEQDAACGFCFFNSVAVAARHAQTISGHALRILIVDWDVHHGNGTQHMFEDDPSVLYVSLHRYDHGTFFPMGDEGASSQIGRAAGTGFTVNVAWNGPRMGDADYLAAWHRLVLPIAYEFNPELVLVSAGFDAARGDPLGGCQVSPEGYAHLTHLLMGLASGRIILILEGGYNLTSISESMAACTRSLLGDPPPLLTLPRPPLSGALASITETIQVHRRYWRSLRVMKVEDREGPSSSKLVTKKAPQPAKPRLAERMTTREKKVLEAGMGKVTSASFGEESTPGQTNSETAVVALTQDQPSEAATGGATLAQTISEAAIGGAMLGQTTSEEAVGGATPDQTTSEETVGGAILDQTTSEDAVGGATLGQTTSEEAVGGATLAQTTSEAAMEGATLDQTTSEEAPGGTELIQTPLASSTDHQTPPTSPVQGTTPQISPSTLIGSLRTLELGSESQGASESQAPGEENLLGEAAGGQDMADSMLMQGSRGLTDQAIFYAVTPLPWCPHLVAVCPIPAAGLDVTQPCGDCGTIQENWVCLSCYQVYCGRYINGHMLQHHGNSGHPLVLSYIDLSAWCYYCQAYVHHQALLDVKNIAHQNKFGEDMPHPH
Assay: HDAC6 Enzyme Assay
Assay type: biochemical
Conditions: enzyme inhibition, substrate Ac-Arg-Gly-Lys(Ac)-AMC, 1 hour at 30° C.
Method: To measure the inhibition of HDAC6 activity, purified human HDAC6 (BPS Bioscience; Cat. No. 5006) is incubated with substrate Ac-Arg-Gly-Lys(Ac)-AMC peptide (Bachem Biosciences; Cat. No. I-1925) for 1 hour at 30° C. in the presence of test compounds or vehicle DMSO control. The reaction is stopped with the HDAC inhibitor trichostatin A (Sigma; Cat. No. T8552) and the amount of Arg-Gly-Lys-AMC generated is quantitated by digestion with trypsin (Sigma; Cat. No. T1426) and subsequent measurement of the amount of AMC released using a fluorescent plate reader (Pherastar; BMG Technologies) set at Ex 340 nm and Em 460 nm. Concentration response curves are generated by calculating the fluorescence increase in test compound-treated samples relative to DMSO-treated controls, and enzyme inhibition (IC50) values are determined from those curves.

Row | IC50 | SMILES
1 | < 50 nM | Cc1onc(-c2ccccc2)c1NC(=O)N1CCc2cc(C(=O)NO)sc2C1 [Compound 132, N^2-hydroxy-N^6-(5-methyl-3-phenylisoxazol-4-yl)-4,7-dihydrothieno[2,3-c]pyridine-2,6(5H)-dicarboxamide]
2 | < 50 nM | Cc1nn(-c2ccccc2)nc1CN1CCc2cc(C(=O)NO)sc2C1 [Compound 24, N-hydroxy-6-[(5-methyl-2-phenyl-2H-1,2,3-triazol-4-yl)methyl]-4,5,6,7-tetrahydrothieno[2,3-c]pyridine-2-carboxamide]
3 | < 50 nM | O=C(NO)c1cc2c(s1)CCN(C(=O)C13CC4CC(CC(C4)C1)C3)C2 [Compound 33, 5-(adamantan-1-ylcarbonyl)-N-hydroxy-4,5,6,7-tetrahydrothieno[3,2-c]pyridine-2-carboxamide]
4 | < 50 nM | Cc1oc(C(C)(C)C)cc1C(=O)N1CCc2cc(C(=O)NO)sc2C1 [Compound 67, 6-(5-tert-butyl-2-methyl-3-furoyl)-N-hydroxy-4,5,6,7-tetrahydrothieno[2,3-c]pyridine-2-carboxamide]
5 | < 50 nM | O=C(NO)c1cc2c(s1)CN(C(=O)c1cscn1)CC2 [Compound 146, N-hydroxy-6-(1,3-thiazol-4-ylcarbonyl)-4,5,6,7-tetrahydrothieno[2,3-c]pyridine-2-carboxamide]
6 | < 50 nM | O=C(NO)c1cc2c(s1)CN(C(=O)c1cnn(-c3ccccc3)c1)CC2 [Compound 127, N-hydroxy-6-[(1-phenyl-1H-pyrazol-4-yl)carbonyl]-4,5,6,7-tetrahydrothieno[2,3-c]pyridine-2-carboxamide]
7 | 50 to 100 nM | Cc1c(C(=O)NO)sc2c1CN(C(=O)c1cc3ccccc3o1)CC2 [Compound 216, 5-(1-benzofuran-2-ylcarbonyl)-N-hydroxy-3-methyl-4,5,6,7-tetrahydrothieno[3,2-c]pyridine-2-carboxamide]
8 | < 50 nM | O=C(NO)c1cc2c(s1)CN(C(=O)c1ccc3ncccc3c1)CC2 [Compound 95, N-hydroxy-6-(quinoline-6-carbonyl)-4,5,6,7-tetrahydrothieno[2,3-c]pyridine-2-carboxamide]
9 | < 50 nM | O=C(NO)c1cc2c(s1)CCN(S(=O)(=O)c1ccc(C(F)(F)F)cc1)C2 [Compound 34, N-hydroxy-5-{[4-(trifluoromethyl)phenyl]sulfonyl}-4,5,6,7-tetrahydrothieno[3,2-c]pyridine-2-carboxamide]
10 | < 50 nM | O=C(NO)c1cc2c(s1)CN(C(=O)CSc1cccc(C(F)(F)F)c1)CC2 [Compound 89, N-hydroxy-6-({[3-(trifluoromethyl)phenyl]sulfanyl}acetyl)-4,5,6,7-tetrahydrothieno[2,3-c]pyridine-2-carboxamide]
11 | 50 to 100 nM | Cc1cc(C)n(CC(=O)N2CCc3cc(C(=O)NO)sc3C2)n1 [Compound 125, 6-(2-(3,5-dimethyl-1H-pyrazol-1-yl)acetyl)-N-hydroxy-4,5,6,7-tetrahydrothieno[2,3-c]pyridine-2-carboxamide]
12 | > 1000 nM | CC1(C)CN(C(=O)c2cc3ccccc3s2)Cc2cc(C(=O)NO)sc21 [Compound 195, 5-(1-benzothien-2-ylcarbonyl)-N-hydroxy-7,7-dimethyl-4,5,6,7-tetrahydrothieno[3,2-c]pyridine-2-carboxamide]
13 | < 50 nM | O=C(NO)c1cc2c(s1)CCN(C(=O)c1cccc3cccnc13)C2 [Compound 30, N-hydroxy-5-(quinolin-8-ylcarbonyl)-4,5,6,7-tetrahydrothieno[3,2-c]pyridine-2-carboxamide]
14 | > 1000 nM | CC1(C(=O)N2Cc3cc(C(=O)NO)sc3C(C)(C)C2)CCCCC1 [Compound 224, N-hydroxy-7,7-dimethyl-5-[(1-methylcyclohexyl)carbonyl]-4,5,6,7-tetrahydrothieno[3,2-c]pyridine-2-carboxamide]
15 | > 1000 nM | CC1(C)CN(C(=O)c2sc3ccccc3c2Cl)Cc2cc(C(=O)NO)sc21 [Compound 192, 5-[(3-chloro-1-benzothien-2-yl)carbonyl]-N-hydroxy-7,7-dimethyl-4,5,6,7-tetrahydrothieno[3,2-c]pyridine-2-carboxamide]
16 | < 50 nM | O=C(NO)c1cc2c(s1)CN(C(=O)c1[nH]nc3c1CCCC3)CC2 [Compound 8, N-hydroxy-6-(4,5,6,7-tetrahydro-2H-indazol-3-ylcarbonyl)-4,5,6,7-tetrahydrothieno[2,3-c]pyridine-2-carboxamide]
17 | < 50 nM | CC(C)c1ccc(NC(=O)N2CCc3cc(C(=O)NO)sc3C2)cc1 [Compound 139, N^2-hydroxy-N^6-(4-isopropylphenyl)-4,7-dihydrothieno[2,3-c]pyridine-2,6(5H)-dicarboxamide]
18 | < 50 nM | CC(C)(C(=O)N1CCc2cc(C(=O)NO)sc2C1)c1ccc(Cl)cc1 [Compound 4, 6-[2-(4-chlorophenyl)-2-methylpropanoyl]-N-hydroxy-4,5,6,7-tetrahydrothieno[2,3-c]pyridine-2-carboxamide]
19 | > 1000 nM | CC1(C)CN(C(=O)c2ccccc2Cl)Cc2cc(C(=O)NO)sc21 [Compound 234, 5-(2-chlorobenzoyl)-N-hydroxy-7,7-dimethyl-4,5,6,7-tetrahydrothieno[3,2-c]pyridine-2-carboxamide]
20 | < 50 nM | O=C(NO)c1cc2c(s1)CN(C(=O)Nc1ccc(-c3ccccc3)s1)CC2 [Compound 40, N^2-hydroxy-N^6-(5-phenyl-2-thienyl)-4,7-dihydrothieno[2,3-c]pyridine-2,6(5H)-dicarboxamide]
21 | 50 to 100 nM | Cc1c(C(=O)NO)sc2c1CN(C(=O)c1sc3ccccc3c1Cl)CC2 [Compound 221, 5-[(3-chloro-1-benzothien-2-yl)carbonyl]-N-hydroxy-3-methyl-4,5,6,7-tetrahydrothieno[3,2-c]pyridine-2-carboxamide]
22 | > 1000 nM | CC1(C)CN(C(=O)c2ccc3c(c2)OCCCO3)Cc2cc(C(=O)NO)sc21 [Compound 198, 5-(3,4-dihydro-2H-1,5-benzodioxepin-7-ylcarbonyl)-N-hydroxy-7,7-dimethyl-4,5,6,7-tetrahydrothieno[3,2-c]pyridine-2-carboxamide]
23 | 50 to 100 nM | Cc1ncc(C(=O)N2CCc3cc(C(=O)NO)sc3C2)c(-c2ccccc2)n1 [Compound 48, N-hydroxy-6-(2-methyl-4-phenylpyrimidine-5-carbonyl)-4,5,6,7-tetrahydrothieno[2,3-c]pyridine-2-carboxamide]
24 | 50 to 100 nM | Cc1cc(C(=O)N2CCc3cc(C(=O)NO)sc3C2)c(C)o1 [Compound 178, 6-(2,5-dimethyl-3-furoyl)-N-hydroxy-4,5,6,7-tetrahydrothieno[2,3-c]pyridine-2-carboxamide]
25 | < 50 nM | O=C(NO)c1cc2c(s1)CN(C(=O)c1ccc3ccccc3n1)CC2 [Compound 179, N-hydroxy-6-(quinolin-2-ylcarbonyl)-4,5,6,7-tetrahydrothieno[2,3-c]pyridine-2-carboxamide]
26 | > 1000 nM | Cc1nc(C(=O)N2Cc3cc(C(=O)NO)sc3C(C)(C)C2)cs1 [Compound 222, N-hydroxy-7,7-dimethyl-5-[(2-methyl-1,3-thiazol-4-yl)carbonyl]-4,5,6,7-tetrahydrothieno[3,2-c]pyridine-2-carboxamide]
27 | < 50 nM | Cc1nc(-c2ccccc2)ncc1C(=O)N1CCc2cc(C(=O)NO)sc2C1 [Compound 152, N-hydroxy-6-[(4-methyl-2-phenylpyrimidin-5-yl)carbonyl]-4,5,6,7-tetrahydrothieno[2,3-c]pyridine-2-carboxamide]
